The values below come from patent publication US9504747B2, “Lipids and lipid compositions for the delivery of active agents” (Novartis AG, priority 2013, dated 2016).

The nature of data set [1]: pKa measurement of the cationic lipid (TNS fluorescence vs pH). Format: physicochemical. Particulars: probe TNS (fluorescent probe), pKa of the cationic lipid of formula (I). The method in brief:
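Lipid (2 mM ethanol stock) mixed with TNS probe (0.3 mM stock) and diluted into twelve sodium phosphate/citric acid buffers of varying pH. TNS fluorescence read after background subtraction and normalized to the lowest-pH value. pKa taken as the pH at half-maximal normalized fluorescence on the smoothed curve, precise to about 0.1 units.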

A short description of data set [2]: Particle size of the lipid nanoparticle (dynamic light scattering, Malvern Zetasizer). The data set is classed as physicochemical. The following applies: Z-average.
Data set [3] is described as follows: Polydispersity index (PDI) of the lipid nanoparticle (dynamic light scattering). Format: physicochemical. The method in brief: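 LNPs made by impinging-jet mixing of lipids in ethanol with siRNA in citrate buffer, pH 4-6, siRNA:total lipid ~0.05 wt/wt; sterile filtered, stored at 4° C. Samples diluted in PBS to ~200-400 kcts count rate before dynamic light scattering. PDI reported as intensity-weighted average of fully formed particles.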

For data set [4], the system named is PLK-1 mRNA. Briefly: LS411N Xenograft Assay with PLK1-424 siRNA lipid nanoparticles. Particulars: percent knock down of PLK-1 mRNA in tumor vs control, 3 mg/kg IV daily for three days, 24 h post last injection. Format: in vivo, Female Nu/Nu mice. As for the experimental part:
Female Nu/Nu mice (6-8 weeks old) were implanted subcutaneously with 5×10^6 LS411N cells. Tumor growth was monitored by caliper measurement before treatment initiation. Mice bearing 150-250 mm^3 subcutaneous tumors were randomized and enrolled in the study. The stock siRNA formulations were diluted to […] with PBS for dosing. Animals enrolled in different groups received a single daily bolus IV injection of 3 mg/kg siRNA for three days. Tumors were harvested 24 hours post last injection to assess target gene regulation by qRT-PCR.
Lipid nanoparticles comprising lipid compounds of formula (I) and the PLK1-424 siRNA duplex sequence listed above were tested in the LS411N Xenograft Assay. The results of this assay are given in Table 5 below as a percent knock down of PLK-1 mRNA as compared to the control when administered as a single daily dose for three days at a dose of 3 mg/kg.

Take `CCCCCCCCCC(=O)OCCCCCCCCOc1cc(CN(C)C)cc(OCCCCCCCCOC(=O)CCCCCCCCC)c1` [Example 52]: the pKa in data set [1] (Table 4) and in data set [1] (Table 5) was 5.96 in each case. In addition, the “Size (nm)” value in data set [2] (Table 4, FVII siRNA LNP, Chol/DSPC/stealth lipid PEG-DMG, molar ratio 45/44/9/2) worked out at 109.4 nm; in data set [2] (Table 4, FVII siRNA LNP, Chol/DSPC/stealth lipid S010, molar ratio 45/44/9/2) it was 145.4 nm; in data set [2] (Table 5, PLK1-424 siRNA LNP, Chol/DSPC/stealth lipid PEG-DSG, 45/44/9/2), 132.2 nm; in data set [2] (Table 5, PLK1-424 siRNA LNP, Chol/DSPC/stealth lipid S010, 45/44/9/2), 132.2 nm. For the same compound, the PDI stood at 0.1 in data set [3] (Table 4, FVII siRNA LNP, Chol/DSPC/stealth lipid PEG-DMG, 45/44/9/2); 0.052 in data set [3] (Table 4, FVII siRNA LNP, Chol/DSPC/stealth lipid S010, 45/44/9/2); 0.06 in data set [3] (Table 5, PLK1-424 siRNA LNP, stealth lipid PEG-DSG, 45/44/9/2); 0.06 in data set [3] (Table 5, PLK1-424 siRNA LNP, stealth lipid S010, 45/44/9/2). Moreover, the “LS411 KD 3 × 3 mg/Kg” value in data set [4] (stealth lipid PEG-DSG) is recorded as 69%; in data set [4] (stealth lipid S010), 50%.
